Columns and labels:
Test in all cases: Test 1: growth inhibition in cancer cell (Bulk IC50)
Format in all cases: cell-based
Details in all cases: Homo sapiens, 96 h, adherent culture, incubated 4 days, CellTiter-Glo
HT-29 cell = tested on: HT-29 cell
Method: (§1) HCT-116 cell, HT-29 cell, and FaDu cell were obtained from the American Type Culture Collection (ATCC). HCT-116 cell and HT-29 cell were cultivated at 37° C. in the presence of 5% CO2 using McCoy's 5a medium containing 10% fetal bovine serum (FBS), and 1% penicillin/streptomycin; and FaDu cell was cultivated at 37° C. in the presence of 5% CO2 using MEM containing 10% FBS, 1% non-essential amino acid, 1% sodium pyruvate, and 1% penicillin/streptomycin. Each cell was seeded on μClear-plate black 384 wells (Greiner bio-one Cat. No. 781091) in 300-600 cells/well, and then each test sample was added thereto to adjust the final concentration thereof in DMSO to 0.1% and the test wells were incubated for 4 days. And then, the viable cell count of each sample was measured using CellTiter-Glo® Luminescent Cell Viability Assay (Promega), and the concentration to inhibit the cell growth in each test sample by 50% was calculated (Bulk IC50 Value; μM).

FaDu cell = tested on: FaDu cell
Method: as §1

HCT-116 cell = tested on: HCT-116 cell
Method: as §1

CN1CCN(C(=O)c2c(C(F)(F)F)oc3c2C(=O)c2ccccc2C3=O)CC1 [Example 8, 3-(4-Methylpiperazine-1-carbonyl)-2-(trifluoromethyl)naphtho[2,3-b]furan-4,9-dione]
IC50 (HT-29 cell): 640 nM | IC50 (FaDu cell): 500 nM | IC50 (HCT-116 cell): 530 nM
